Source: patent US8105798B2, “Cytoplasmic activity of retinoid X receptor and its regulation by ligands and dimerization” (The Burnham Institute, priority 2003, dated 2012)

Assays:
Format in all cases: cell-based
RXRα = target: T1, RXRα (Homo sapiens, UniProt P19793); test: subcellular localization of RXRα by immunostaining / confocal microscopy
T1 sequence (P19793 1-462): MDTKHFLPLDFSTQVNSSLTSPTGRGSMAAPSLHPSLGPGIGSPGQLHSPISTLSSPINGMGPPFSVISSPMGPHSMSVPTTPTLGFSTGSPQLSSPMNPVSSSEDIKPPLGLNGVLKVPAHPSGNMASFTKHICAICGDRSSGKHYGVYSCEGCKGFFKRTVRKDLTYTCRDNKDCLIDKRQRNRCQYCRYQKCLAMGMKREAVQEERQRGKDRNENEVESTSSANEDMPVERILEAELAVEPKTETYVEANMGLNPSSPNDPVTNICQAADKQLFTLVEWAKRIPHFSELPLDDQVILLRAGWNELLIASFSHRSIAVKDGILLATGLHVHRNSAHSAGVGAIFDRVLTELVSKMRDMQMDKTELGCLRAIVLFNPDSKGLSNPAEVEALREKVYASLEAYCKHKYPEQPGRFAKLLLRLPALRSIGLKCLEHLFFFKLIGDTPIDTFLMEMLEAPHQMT
Experimental: Expression vector for Flag-RXRα was transfected into the indicated cell line. Cells were then treated with 15d-PGJ2 (5.micro.M) for 3 hr, then immunostained with anti-Flag antibody to detect RXRα Flag-RXRα was visualized by confocal microscopy.
(§1) Expression vectors for Flag-RXRα and GFP-TR3 were transfected into PC12 cells alone or together. Cells were then treated with 15d-PGJ2 (5.micro.M) for 3 hr, then immunostained with anti-Flag antibody to detect RXRα Flag-RXRα and GFP-TR3 were visualized by confocal microscopy, and their images merged.
Cos7 cells were transfected with GFP-RXRα and Mito-REP, and treated with or without 10^-4 M indomethacin or diclofenac for 4 hours. The distribution of GFP-RXRα and Mito-REP was visualized by confocal microscopy.
For example, cells such as LNCaP prostate cancer cells are induced to apoptosis using agents such as the phorbol ester, TPA (12-0-tetradecanolphorbol 13-acetate, Cell Signaling Technology Cat. No.: 9905).
For example, heat shock protein 60 (Hsp60) is a mitochondrial specific protein. […] The treated cells are then incubated with a conjugated secondary antibody and visualized using confocal microscopy. In this example, Cy-3 or FITC conjugated secondary antibodies were used for visualizing the sub-cellular localization of RXRα or Hsp60, respectively.
A GFP-RXRα expression vector was transfected into COS-7 cells and GFP-RXRα was expressed.
A fusion protein created by combining GFP and amino acids 348-398 of RXRα, is transfected into HEK293T cells.
To determine the role of 15d-PGJ2 binding on the new RXR pathway, a confocal microscopy analysis was performed to determine subcellular localization of RXRα in the presence or absence of 15d-PGJ2.
(§2) Because RXR heterodimerizes with TR3, Inventor examined the effect of 15d-PGJ2 on TR3 subcellular localization in PC12 phaeochromocytoma cells.
To determine the mechanism of RXRα mediated apoptosis in the presence of sulindac sulfide, Inventors examined the effect of sulindac sulfide on subcellular localization of RXRα

TR3 = test: subcellular localization of TR3 and RXRα/TR3 heterodimer by confocal microscopy; settings: 75 μM
Experimental: as §1, with “FIG. 10 is a series of confocal microscope images of immunostained PC12 cells illustrating that binding of 15d-PGJ2 to RXRα induces translocation of RXRα homodimer/monomer or TR3/RXRα heterodimer from the nucleus to the cytoplasm. Expression” for “Expression”
In the absence of TPA, both TR3 and RXRα reside mainly in the nucleus. […] (FIG. 2).
as §2
Either TR3 alone, RXRα alone or TR3 and RXRα was transfected into HEK293T cells. Cells were then treated with sulindac sulfide (75.micro.M) for 6 hr. RXR.alpha and TR3 localization was determined by immunostaining, and cells were also stained by DAPI. […] Thus, the effect of sulindac sulfide on the cytoplasmic localization of TR3 depends on RXRα expression, probably due to their heterodimerization. Thus, sulindac sulfide induces nuclear export of RXRα and RXRα/TR3 heterodimer. (FIG. 14b).
The effect of sulindac sulfide on mitochondrial targeting of RXRα and TR3 was determined by treating H460 lung cancer cells with 75 micro.M sulindac sulfide for 6 hours and visualization of the cellular localization of these proteins by immunostaining. A two stage detection system was used having either anti-RXR or anti TR3 as a first stage (Santa Cruz Biotechnology and Abgent, respectively). In the absence of treatment, both RXRα and TR3 were found mainly in the nucleus.

RXRα/IKK interaction = target: T2, RXRα/IKK interaction (Homo sapiens, UniProt P19793); test: co-immunoprecipitation assay of RXRα with IKK; settings: 6 hr
T2 construct: expressed in transfected cells; host or cells: HEK293T, pcDNA3 expression vectors
T2 sequence (Q9Y6K9 whole entry partner, one chain of several): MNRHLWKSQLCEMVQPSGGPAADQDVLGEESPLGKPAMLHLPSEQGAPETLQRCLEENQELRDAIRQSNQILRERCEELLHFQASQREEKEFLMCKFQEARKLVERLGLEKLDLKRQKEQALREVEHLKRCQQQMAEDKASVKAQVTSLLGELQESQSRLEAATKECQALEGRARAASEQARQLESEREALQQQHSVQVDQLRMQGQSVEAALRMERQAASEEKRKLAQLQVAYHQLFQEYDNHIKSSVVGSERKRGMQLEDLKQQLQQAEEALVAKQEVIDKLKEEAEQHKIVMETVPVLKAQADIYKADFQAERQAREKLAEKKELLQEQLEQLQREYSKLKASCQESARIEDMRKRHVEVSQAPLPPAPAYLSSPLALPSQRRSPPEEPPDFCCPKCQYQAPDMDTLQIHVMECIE
T2 sequence (O14920 whole entry partner, one chain of several): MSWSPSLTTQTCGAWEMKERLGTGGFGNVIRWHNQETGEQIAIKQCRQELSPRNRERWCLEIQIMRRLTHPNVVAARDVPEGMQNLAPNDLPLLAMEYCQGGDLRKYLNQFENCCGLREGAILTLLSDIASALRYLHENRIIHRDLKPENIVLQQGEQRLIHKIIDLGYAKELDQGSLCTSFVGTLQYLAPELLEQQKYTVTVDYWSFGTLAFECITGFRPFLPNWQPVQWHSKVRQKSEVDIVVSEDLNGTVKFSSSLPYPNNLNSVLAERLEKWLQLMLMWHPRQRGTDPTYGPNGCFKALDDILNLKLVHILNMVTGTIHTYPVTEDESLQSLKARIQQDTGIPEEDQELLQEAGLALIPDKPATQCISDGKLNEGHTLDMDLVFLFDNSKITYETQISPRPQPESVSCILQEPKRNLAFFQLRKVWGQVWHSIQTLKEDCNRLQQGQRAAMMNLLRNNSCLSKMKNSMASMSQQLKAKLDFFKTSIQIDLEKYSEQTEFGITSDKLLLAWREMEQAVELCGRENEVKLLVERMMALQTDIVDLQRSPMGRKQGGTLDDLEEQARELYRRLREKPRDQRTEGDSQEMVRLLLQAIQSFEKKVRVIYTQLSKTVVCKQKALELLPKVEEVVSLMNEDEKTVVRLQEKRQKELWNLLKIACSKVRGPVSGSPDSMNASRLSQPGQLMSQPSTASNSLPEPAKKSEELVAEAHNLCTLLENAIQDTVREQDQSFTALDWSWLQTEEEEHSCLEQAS
Description: IKK is composed of three subunits: IKKα and IKKβ, the catalytic subunits, and IKKγ, a regulatory subunit. IKK activation is required for NF-kB activation through its phosphorylation and degradation of IkB in response to proinflammatory stimuli. In addition, IKK also regulates cellular processes in a NF-kB-independent manner. We examined whether sulindac sulfide-induced cytoplasmic RXRα could interact with IKK. The indicated expression vector (pcDNA3 from Invitrogen, Corp) was transfected into HEK293T cells alone or together. After transfection, cells were treated with sulindac sulfide (75.micro.M) for 6 hr, and the interaction of RXRα and IKKβ was analyzed by co-immunoprecipitation assay. […] (FIG. 17a). The interaction was also illustrated by their cytoplasmic co-localization in cells treated with sulindac sulfide. (FIG. 17b). […] In this example, H460 cells were treated with or without sulindac sulfide (75.micro.M) for 6 hr, and cells were stained for RXRα and IKKβ (FIG. 17c). […] HA-IKKγ and Flag-RXRα expression vectors were transfected into HEK293T cells alone or together. After transfection, cells were treated with a new retinoid (BI419 (10^-6 M), 15d-PGJ2 (5.micro.M), or sulindac sulfide (75.micro.M) for 6 hr. The interaction of RXRα and IKKγ was studied by co-immunoprecipitation assay.

In the case of CSc1ccc(/C=C2/C(C)=C(CC(=O)O)c3cc(F)ccc32)cc1 [sulindac sulfide], the “endogenous RXRα localization” value (RXRα; Calu-6, H460, LNCaP, ZR-75-1, MGC80-3 and HEK293T cells, 75 μM, 6 hr) is reported as “found mainly in the cytoplasm”, the RXRα mitochondrial localization (RXRα; H460, MGC80-3 and LNCaP cells, 75 μM, 6 hr) is reported as “results in RXRα mitochondrial localization” and the “transfected RXRα localization” value (RXRα; HEK293T cells, sulindac sulfide) is reported as “found in the cytoplasm”. The “mitochondrial targeting of RXRα and TR3 (Hsp60)” value (TR3; H460 lung cancer cells, 6 hours) was “extensive co-localization of RXRα and TR3 with Hsp60”, the “TR3 and RXRα localization, co-transfected” value (TR3; HEK293T cells, 6 hr) was “both TR3 and RXRα are found in the cytoplasm” and the “TR3 localization, TR3 transfected alone” value (TR3; HEK293T cells, 6 hr) was “does not affect the nuclear localization of TR3”. The “interaction of RXRα with IKKγ” value (RXRα/IKK interaction; HEK293T cells, HA-IKKγ and Flag-RXRα, BI419 10^-6 M, 15d-PGJ2 5 μM, sulindac sulfide 75 μM) was “further promoted” and the “interaction between RXRα and IKKβ” value (RXRα/IKK interaction; transfected HEK293T cells, 75 μM) was “extensive interaction”.
